In ChEMBL document CHEMBL1149309, “Potent, selective and low-calcemic inhibitors of CYP24 hydroxylase: 24-sulfoximine analogues of the hormone 1alpha,25-dihydroxyvitamin D(3)” (J Med Chem, 2004):

molecular target: T1, 25-hydroxyvitamin D-1 alpha hydroxylase, mitochondrial (Homo sapiens, UniProt O15528); assay: Inhibition of human CYP27B hydroxylase expressed in SW900 cells; type: cell-based; conditions: not given
T1 sequence (O15528 whole entry): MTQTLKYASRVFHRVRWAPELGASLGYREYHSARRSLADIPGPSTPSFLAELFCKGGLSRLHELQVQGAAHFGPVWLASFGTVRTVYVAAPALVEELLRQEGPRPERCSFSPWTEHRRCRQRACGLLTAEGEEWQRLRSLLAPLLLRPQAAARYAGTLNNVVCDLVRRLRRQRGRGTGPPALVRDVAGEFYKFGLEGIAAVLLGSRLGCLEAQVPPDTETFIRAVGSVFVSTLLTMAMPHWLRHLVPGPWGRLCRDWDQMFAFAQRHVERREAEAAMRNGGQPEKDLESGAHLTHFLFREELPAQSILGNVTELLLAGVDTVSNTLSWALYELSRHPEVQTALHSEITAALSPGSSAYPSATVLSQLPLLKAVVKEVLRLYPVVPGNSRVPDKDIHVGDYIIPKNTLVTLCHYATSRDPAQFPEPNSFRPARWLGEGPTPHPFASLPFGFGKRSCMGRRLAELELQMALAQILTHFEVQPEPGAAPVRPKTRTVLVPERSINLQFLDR

IC50 [µM] | SMILES
0.554 | C=C1/C(=C\C=C2/CCC[C@]3(C)[C@@H]([C@H](C)CCS(=N)(=O)c4ccccc4)CC[C@@H]23)C[C@@H](O)C[C@@H]1O (stereo in doubt; 3a) [listing 1 of 2 here]

molecular target: T2, 1,25-dihydroxyvitamin D(3) 24-hydroxylase, mitochondrial (Homo sapiens, UniProt Q07973); assay: Inhibition of human CYP24 hydroxylase expressed in V79 cells; type: cell-based; conditions: not given
T2 sequence (Q07973 whole entry): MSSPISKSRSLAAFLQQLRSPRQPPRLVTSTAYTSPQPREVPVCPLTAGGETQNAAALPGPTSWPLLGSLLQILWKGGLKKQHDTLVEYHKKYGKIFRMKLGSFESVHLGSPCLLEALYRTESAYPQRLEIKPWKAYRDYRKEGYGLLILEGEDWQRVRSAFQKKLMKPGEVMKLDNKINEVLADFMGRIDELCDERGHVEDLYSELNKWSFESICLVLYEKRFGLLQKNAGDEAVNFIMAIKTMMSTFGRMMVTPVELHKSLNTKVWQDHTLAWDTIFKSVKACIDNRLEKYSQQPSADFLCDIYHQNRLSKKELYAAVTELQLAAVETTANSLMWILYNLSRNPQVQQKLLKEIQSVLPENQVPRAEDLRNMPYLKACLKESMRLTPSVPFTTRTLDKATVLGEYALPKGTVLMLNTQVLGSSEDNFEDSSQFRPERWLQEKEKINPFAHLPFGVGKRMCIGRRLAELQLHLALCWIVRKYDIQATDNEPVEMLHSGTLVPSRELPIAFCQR

SMILES | IC50 [µM]
C=C1/C(=C\C=C2/CCC[C@]3(C)[C@@H]([C@@H](C)/C=C/[S+](=N)([O-])c4ccccc4)CC[C@@H]23)C[C@@H](O)C[C@@H]1O (stereo partly drawn) | 0.549
C=C1/C(=C\C=C2/CCC[C@]3(C)[C@@H]([C@H](C)/C=C(\F)[S+](=N)([O-])c4ccccc4)CC[C@@H]23)C[C@@H](O)C[C@@H]1O (stereo partly drawn) | > 1
C[C@H](CC[S+](=N)([O-])c1ccccc1)[C@H]1CC[C@H]2/C(=C/C=C3C[C@@H](O)C[C@H](O)C3)CCC[C@]12C (stereo in doubt; 3c) | 0.013
C[C@H](CC[S+](=N)([O-])c1ccccc1)[C@H]1CC[C@H]2/C(=C/C=C3C[C@@H](O)C[C@H](O)C3)CCC[C@]12C (stereo in doubt; 3d) | 0.0097
C=C1/C(=C\C=C2/CCC[C@]3(C)[C@@H]([C@H](C)CC4([S+](=N)([O-])c5ccccc5)CC4)CC[C@@H]23)C[C@@H](O)C[C@@H]1O (stereo in doubt; 3f) | 0.0205

Continued, values first:

IC50 [µM] | SMILES
0.075 | C=C1CC[C@H](O)C/C1=C/C=C1\CCC[C@]2(C)[C@@H]([C@H](C)CC[S+](=N)([O-])c3ccccc3)CC[C@@H]12 (stereo partly drawn)
> 1 | C=C1/C(=C\C=C2/CCC[C@]3(C)[C@@H]([C@H](C)/C=C/[S+](=N)([O-])c4ccccc4)CC[C@@H]23)C[C@@H](O)C[C@@H]1O (stereo partly drawn)
0.0074 | C=C1/C(=C\C=C2/CCC[C@]3(C)[C@@H]([C@H](C)CCS(=N)(=O)c4ccccc4)CC[C@@H]23)C[C@@H](O)C[C@@H]1O (stereo in doubt; 3a) [listing 1 of 2 here]
0.05 | C=C1/C(=C\C=C2/CCC[C@]3(C)[C@@H]([C@H](C)CC4([S+](=N)([O-])c5ccccc5)CC4)CC[C@@H]23)C[C@@H](O)C[C@@H]1O (stereo in doubt; 3g)
0.044 | C=C1/C(=C\C=C2/CCC[C@]3(C)[C@@H]([C@H](C)CC[S+](=N)([O-])c4ccc(F)cc4)CC[C@@H]23)C[C@@H](O)C[C@@H]1O (stereo in doubt; 3i)

molecular target: T3, Vitamin D3 receptor (Homo sapiens) (UniProt P11473); conditions: CV-1
T3 sequence (whole entry): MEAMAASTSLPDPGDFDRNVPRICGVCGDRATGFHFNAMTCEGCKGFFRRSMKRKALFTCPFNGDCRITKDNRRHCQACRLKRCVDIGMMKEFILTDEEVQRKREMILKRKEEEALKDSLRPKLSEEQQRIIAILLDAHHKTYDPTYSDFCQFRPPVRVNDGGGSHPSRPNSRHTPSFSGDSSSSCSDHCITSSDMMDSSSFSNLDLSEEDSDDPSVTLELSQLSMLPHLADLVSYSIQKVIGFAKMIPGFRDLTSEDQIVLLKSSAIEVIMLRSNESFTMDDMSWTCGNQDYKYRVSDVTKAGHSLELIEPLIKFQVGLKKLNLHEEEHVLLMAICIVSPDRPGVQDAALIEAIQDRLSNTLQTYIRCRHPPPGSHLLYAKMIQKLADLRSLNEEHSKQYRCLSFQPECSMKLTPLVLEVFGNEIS
Description: Effect on VDR-mediated transcriptional activity in CV1 cells transfected with human recombinant VDR

ED50 [µM] | SMILES
> 1 | C=C1/C(=C\C=C2/CCC[C@]3(C)[C@@H]([C@H](C)CCS(=N)(=O)c4ccccc4)CC[C@@H]23)C[C@@H](O)C[C@@H]1O (stereo in doubt; 3a) [listing 2 of 2 here]
> 1 | C=C1/C(=C\C=C2/CCC[C@]3(C)[C@@H]([C@H](C)CCS(=N)(=O)c4ccccc4)CC[C@@H]23)C[C@@H](O)C[C@@H]1O (stereo in doubt; 3b)
